Test results reported in the supplement of paper PMC10307832.

Tests used:
Test in all cases: relative viability (nuclei count vs DMSO), 5 days (fraction); higher = more cells survive
[1] = compound: COC1=CC=C(C=C1)CN2C=CC3=C2C=C(C=C3)C(=O)NO + Cc1nc(NC(=O)N2CCC[C@H]2C(N)=O)sc1-c1ccnc(C(C)(C)C(F)(F)F)c1 [Alpelisib] (partner 2 µM)
How it was run: (§1)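 Medians of duplicate plates are given as relative viability. That measure is the nuclei count in treated wells divided by the count in vehicle wells. Counts were taken on 4× images of lung cancer cell lines in 1536-well plates, 5 days after pin-tool dosing the day after seeding with one drug alone or a fixed anchor-drug dose plus five library-drug doses (not always all listed) in √10 steps.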

[2] = compound: COC1=CC=C(C=C1)CN2C=CC3=C2C=C(C=C3)C(=O)NO + O=C(c1cc(Cc2n[nH]c(=O)c3ccccc23)ccc1F)N1CCN(C(=O)C2CC2)CC1 [Olaparib] (partner 8 µM)
How it was run: as §1

[3] = compound: C[C@]1(c2nc3c(C(N)=O)cccc3[nH]2)CCCN1 [Veliparib] + CC(C)C[C@H](NC(=O)[C@H](Cc1ccccc1)NC(=O)c1cnccn1)B(O)O [Bortezomib] (partner 0.002 µM)
How it was run: as §1

[4] = compound: C[C@]1(c2nc3c(C(N)=O)cccc3[nH]2)CCCN1 [Veliparib] + C[C@]1(O)C[C@@H](c2nc(-c3ccc4ccc(-c5ccccc5)nc4c3)c3c(N)nccn32)C1 [Linsitinib] (partner 1 µM)
How it was run: as §1

Row | Cell Line | relative viability ([1]; first compound 0.08 µM) | relative viability ([1]; first compound 0.253 µM) | relative viability ([1]; first compound 0.8 µM) | relative viability ([1]; first compound 2.53 µM) | relative viability ([1]; first compound 8 µM) | relative viability ([2]; first compound 0.253 µM) | relative viability ([2]; first compound 0.8 µM) | relative viability ([2]; first compound 2.53 µM) | relative viability ([2]; first compound 8 µM) | relative viability ([3]; first compound 0.02 µM) | relative viability ([3]; first compound 0.06325 µM) | relative viability ([3]; first compound 0.2 µM) | relative viability ([3]; first compound 0.6325 µM) | relative viability ([3]; first compound 2 µM) | relative viability ([4]; first compound 0.02 µM) | relative viability ([4]; first compound 0.06325 µM) | relative viability ([4]; first compound 0.2 µM) | relative viability ([4]; first compound 0.6325 µM) | relative viability ([4]; first compound 2 µM) | relative viability ([2]; first compound 0.08 µM)
1 | EKVX | 0.749 | 0.856 | 0.878 | 0.91 | 0.897 | 0.802 | 0.739 | 0.868 | 0.758 | 0.806 | 0.893 | 0.888 | 0.978 | 1.16 | 0.948 | 0.912 | 0.952 | 0.86 | 1.02 | –
2 | CAL-12T | 1.22 | 1.31 | 1.19 | 1.19 | 1.24 | 0.675 | 0.709 | 0.735 | 0.649 | 0.862 | 0.72 | 0.952 | 1.18 | 0.971 | 0.356 | 0.823 | 0.775 | 0.765 | 0.817 | 0.674
3 | SW 900 | – | – | – | – | – | 0.956 | 0.769 | 0.849 | 0.604 | – | – | – | – | – | – | – | – | – | – | 0.759
4 | NCI-H1734 | – | 0.676 | 0.717 | 0.622 | 0.689 | 0.325 | 0.63 | 0.55 | 0.676 | 0.911 | 0.779 | 0.904 | 0.827 | 1.01 | 0.925 | 0.85 | 0.917 | 0.805 | 0.928 | –
5 | NCI-H522 | – | – | – | – | – | 0.669 | 0.693 | 0.65 | 0.568 | – | – | – | – | – | – | – | – | – | – | –
6 | A549 | 0.643 | 0.812 | 0.743 | 0.749 | 0.58 | 0.38 | 0.39 | 0.337 | 0.252 | – | – | – | – | – | 0.62 | 0.576 | 0.591 | 0.626 | 0.586 | –
7 | BEN | 0.972 | 1.07 | 1.06 | 0.967 | 0.929 | 1.03 | 0.95 | 0.913 | 0.924 | 0.676 | 0.739 | 0.827 | 0.87 | 0.78 | 0.803 | 0.875 | 1.15 | 0.928 | 0.946 | 1.09
8 | NCI-H2126 | 0.738 | 0.798 | 0.744 | 0.804 | 0.836 | 0.945 | 0.961 | 0.956 | 0.874 | 1.03 | 1.07 | 1.18 | 1.14 | 1.06 | 0.715 | 0.668 | 0.701 | 0.661 | 0.733 | 0.869
9 | NCI-H1563 | 0.798 | 0.947 | 0.946 | 0.964 | 0.839 | – | – | – | – | 0.645 | 0.803 | 0.859 | 0.792 | 0.799 | 1.23 | 1.07 | 1.27 | 1.12 | 1.12 | –
10 | NCI-H2023 | 0.58 | 0.646 | 0.507 | 0.586 | 0.639 | 0.475 | 0.464 | 0.433 | 0.413 | 0.505 | 0.913 | 0.937 | 0.965 | 0.924 | 0.712 | 0.692 | 0.677 | 0.538 | 0.658 | 0.453
